target: recombinant human integrin αVβ6 (Homo sapiens (Human), UniProt P06756+P18564); test: Solid phase integrin αVβ6 binding assay; conditions: inhibition of recombinant TGFβ1 LAP binding to coated integrin, IC50 presented in four ranges, read-out: αvβ6 Inhibition IC50 (nM) - range
Procedure: (§1) Microplates were coated with recombinant human integrin αVβ6 (2 μg/mL) in PBS (100 μL/well 25° C., overnight). The coating solution was removed, washed with wash buffer (0.05% Tween 20; 0.5 mM MnCl2; in 1×TBS). The plate was blocked with 200 μL/well of Block Buffer (1% BSA; 5% sucrose; 0.5 mM MnCl2; in 1×TBS) at 37° C. for 2 h. Dilutions of testing compounds and recombinant TGFβ1 LAP (0.67 μg/mL) in binding buffer (0.05% BSA; 2.5% sucrose; 0.5 mM MnCl2; in 1×TBS) were added. The plate was incubated for 2 hours at 25° C., washed, and incubated for 1 hour with Biotin-Anti-hLAP. Bound antibody was detected by peroxidase-conjugated streptavidin. The IC50 values for testing compounds were calculated by a four-parameter logistic regression.
The compounds tested were compound samples prepared according to procedures described in the Synthetic Examples section, with the stereochemical purity as indicated in the Examples.
as §1, with “A third series of exemplary compounds was selected for testing in the solid phase integrin αVβ6 binding assay. The compounds tested were compound samples prepared according to procedures described in the Synthetic Examples section, with the stereochemical purity as indicated in the Examples. As in Example B1, microplates were” for “Microplates were”, “(0.67 g/mL)” for “(0.67 μg/mL)”

Sequence of recombinant human integrin αVβ6 (P06756 31-992): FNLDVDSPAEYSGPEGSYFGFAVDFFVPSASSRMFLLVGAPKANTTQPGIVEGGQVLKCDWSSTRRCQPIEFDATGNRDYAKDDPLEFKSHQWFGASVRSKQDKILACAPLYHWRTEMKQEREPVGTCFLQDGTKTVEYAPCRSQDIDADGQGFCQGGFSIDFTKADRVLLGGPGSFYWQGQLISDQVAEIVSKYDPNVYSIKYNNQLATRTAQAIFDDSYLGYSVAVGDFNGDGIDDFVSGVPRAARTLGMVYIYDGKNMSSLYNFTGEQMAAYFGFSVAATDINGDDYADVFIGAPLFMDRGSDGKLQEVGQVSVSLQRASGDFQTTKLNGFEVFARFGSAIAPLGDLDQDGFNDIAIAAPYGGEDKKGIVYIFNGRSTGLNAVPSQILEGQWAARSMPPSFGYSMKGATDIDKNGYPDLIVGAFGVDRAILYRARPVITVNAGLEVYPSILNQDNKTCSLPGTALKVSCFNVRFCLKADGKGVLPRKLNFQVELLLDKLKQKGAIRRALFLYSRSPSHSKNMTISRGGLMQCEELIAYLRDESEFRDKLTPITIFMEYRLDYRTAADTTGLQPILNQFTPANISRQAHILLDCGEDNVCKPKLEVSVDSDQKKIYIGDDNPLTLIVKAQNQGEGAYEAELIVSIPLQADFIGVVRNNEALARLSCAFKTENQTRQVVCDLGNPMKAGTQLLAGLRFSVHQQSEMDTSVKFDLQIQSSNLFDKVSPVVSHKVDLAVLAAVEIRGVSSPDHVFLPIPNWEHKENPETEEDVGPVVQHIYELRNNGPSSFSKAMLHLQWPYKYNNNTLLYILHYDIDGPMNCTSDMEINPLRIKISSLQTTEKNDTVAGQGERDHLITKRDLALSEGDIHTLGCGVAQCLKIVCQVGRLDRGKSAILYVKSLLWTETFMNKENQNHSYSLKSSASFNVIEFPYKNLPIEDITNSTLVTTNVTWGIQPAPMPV
Sequence of recombinant human integrin αVβ6 (P18564 22-707): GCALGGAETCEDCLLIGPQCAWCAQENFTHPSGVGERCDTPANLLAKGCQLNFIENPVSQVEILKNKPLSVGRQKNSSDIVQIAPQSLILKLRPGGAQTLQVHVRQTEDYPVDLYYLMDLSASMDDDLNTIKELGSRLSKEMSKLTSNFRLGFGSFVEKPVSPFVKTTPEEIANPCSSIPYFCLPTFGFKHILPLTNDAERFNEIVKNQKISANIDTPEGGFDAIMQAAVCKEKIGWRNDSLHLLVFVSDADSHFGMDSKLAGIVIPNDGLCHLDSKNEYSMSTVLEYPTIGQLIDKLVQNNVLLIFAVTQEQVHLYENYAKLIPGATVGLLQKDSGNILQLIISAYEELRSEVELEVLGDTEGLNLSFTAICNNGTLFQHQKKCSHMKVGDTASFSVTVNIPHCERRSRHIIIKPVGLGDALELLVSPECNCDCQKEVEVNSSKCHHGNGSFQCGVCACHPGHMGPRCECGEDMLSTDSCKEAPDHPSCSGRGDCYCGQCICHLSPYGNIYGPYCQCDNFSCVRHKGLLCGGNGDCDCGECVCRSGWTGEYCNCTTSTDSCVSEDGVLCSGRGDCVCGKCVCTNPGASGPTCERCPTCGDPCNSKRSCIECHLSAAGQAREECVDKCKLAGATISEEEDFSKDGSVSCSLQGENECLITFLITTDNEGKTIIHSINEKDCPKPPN

Row | SMILES | IC50 [nM]
1 | O=C(O)[C@H](CCN(CCCCc1ccc2c(n1)NCCC2)CCOc1ccccn1)Nc1ncnc2ccccc12 [Compound 49, (S)-4-((2-(pyridin-2-yloxy)ethyl) (4-(5,6,7,8-tetrahydro-1,8-naphthyridin-2-yl)butyl)amino)-2-(quinazolin-4-ylamino) butanoic Acid] | < 50
2 | O=C(O)[C@H](CCN(CCCCc1ccc2c(n1)NCCC2)CCOCC(F)F)Nc1ncnc2ccccc12 [Compound 50, (S)-4-((2-(2,2-difluoroethoxy)ethyl) (4-(5,6,7,8-tetrahydro-1,8-naphthyridin-2-yl)butyl)amino)-2-(quinazolin-4-ylamino) butanoic Acid] | < 50
3 | O=C(O)[C@H](CCN(CCCCc1ccc2c(n1)NCCC2)CCOCC(F)(F)F)Nc1ncnc2cccnc12 [Compound 51, (S)-2-(pyrido[3,2-d]pyrimidin-4-ylamino)-4-((4-(5,6,7,8-tetrahydro-1,8-naphthyridin-2-yl)butyl) (2-(2,2,2-trifluoroethoxy)ethyl)amino) butanoic Acid] | < 50
4 | Cc1ncccc1OCCN(CCCCc1ccc2c(n1)NCCC2)CC[C@H](Nc1ncnc2ccccc12)C(=O)O [Compound 52, (S)-4-((2-((2-methylpyridin-3-yl)oxy)ethyl) (4-(5,6,7,8-tetrahydro-1,8-naphthyridin-2-yl)butyl)amino)-2-(quinazolin-4-ylamino) butanoic Acid] | < 50
5 | Cc1nc(N[C@@H](CCN(CCCCc2ccc3c(n2)NCCC3)CCOc2cccnc2C)C(=O)O)c2ccc(F)cc2n1 [Compound 53, (S)-2-((7-fluoro-2-methylquinazolin-4-yl)amino)-4-((2-((2-methylpyridin-3-yl)oxy)ethyl) (4-(5,6,7,8-tetrahydro-1,8-naphthyridin-2-yl)butyl)amino) butanoic Acid] | < 50
6 | Cc1ncccc1OCCN(CCCCc1ccc2c(n1)NCCC2)CC[C@H](Nc1ncnc2cccnc12)C(=O)O [Compound 54, (S)-4-((2-((2-methylpyridin-3-yl)oxy)ethyl) (4-(5,6,7,8-tetrahydro-1,8-naphthyridin-2-yl)butyl)amino)-2-(pyrido[3,2-d]pyrimidin-4-ylamino) butanoic Acid] | < 50
7 | CCOCCN(CCCCc1ccc2c(n1)NCCC2)CC[C@H](Nc1ncnc2ccccc12)C(=O)O [Compound 55, (S)-4-((2-ethoxyethyl) (4-(5,6,7,8-tetrahydro-1,8-naphthyridin-2-yl)butyl)amino)-2-(quinazolin-4-ylamino) butanoic Acid] | < 50
8 | Cc1ccc(OCCN(CCCCc2ccc3c(n2)NCCC3)CC[C@H](Nc2nc(C)nc3cc(F)ccc23)C(=O)O)cn1 [Compound 56, (S)-2-((7-fluoro-2-methylquinazolin-4-yl)amino)-4-((2-((6-methylpyridin-3-yl)oxy)ethyl) (4-(5,6,7,8-tetrahydro-1,8-naphthyridin-2-yl)butyl)amino) butanoic Acid] | < 50
9 | Cc1ccc(OCCN(CCCCc2ccc3c(n2)NCCC3)CC[C@H](Nc2ncnc3cccnc23)C(=O)O)cn1 [Compound 57, (S)-4-((2-((6-methylpyridin-3-yl)oxy)ethyl) (4-(5,6,7,8-tetrahydro-1,8-naphthyridin-2-yl)butyl)amino)-2-(pyrido[3,2-d]pyrimidin-4-ylamino) butanoic Acid] | < 50
10 | O=C(O)[C@H](CCN(CCCCc1ccc2c(n1)NCCC2)CCOc1cncc(F)c1)Nc1ncnc2ccccc12 [Compound 58, (S)-4-((2-((5-fluoropyridin-3-yl)oxy)ethyl) (4-(5,6,7,8-tetrahydro-1,8-naphthyridin-2-yl)butyl)amino)-2-(quinazolin-4-ylamino) butanoic Acid] | < 50
11 | Cc1ccc(OCCN(CCCCc2ccc3c(n2)NCCC3)CC[C@H](Nc2ncnc3ccccc23)C(=O)O)cn1 [Compound 59, (S)-4-((2-((6-methylpyridin-3-yl)oxy)ethyl) (4-(5,6,7,8-tetrahydro-1,8-naphthyridin-2-yl)butyl)amino)-2-(quinazolin-4-ylamino) butanoic Acid] | < 50
12 | O=C(O)[C@H](CCN(CCCCc1ccc2c(n1)NCCC2)CCOc1cncc(F)c1)Nc1ncnc2cccnc12 [Compound 60, (S)-4-((2-((5-fluoropyridin-3-yl)oxy)ethyl) (4-(5,6,7,8-tetrahydro-1,8-naphthyridin-2-yl)butyl)amino)-2-(pyrido[3,2-d]pyrimidin-4-ylamino) butanoic Acid] | < 50
13 | Cc1nc(N[C@@H](CCN(CCCCc2ccc3c(n2)NCCC3)CCOc2cncc(F)c2)C(=O)O)c2ccc(F)cc2n1 [Compound 61, (S)-2-((7-fluoro-2-methylquinazolin-4-yl)amino)-4-((2-((5-fluoropyridin-3-yl)oxy)ethyl) (4-(5,6,7,8-tetrahydro-1,8-naphthyridin-2-yl)butyl)amino) butanoic Acid] | < 50
14 | CO[C@H](C)CN(CCCCc1ccc2c(n1)NCCC2)CC[C@H](Nc1ncnc2ccccc12)C(=O)O [Compound 62, (S)-4-(((R)-2-methoxypropyl) (4-(5,6,7,8-tetrahydro-1,8-naphthyridin-2-yl)butyl)amino)-2-(quinazolin-4-ylamino) butanoic Acid] | < 50
15 | CC(=O)NCCN(CCCCc1ccc2c(n1)NCCC2)CC[C@H](Nc1ncnc2ccccc12)C(=O)O [Compound 63, (S)-4-((2-acetamidoethyl) (4-(5,6,7,8-tetrahydro-1,8-naphthyridin-2-yl)butyl)amino)-2-(quinazolin-4-ylamino) butanoic Acid] | < 50
16 | CN(C)C(=O)CN(CCCCc1ccc2c(n1)NCCC2)CC[C@H](Nc1ncnc2ccccc12)C(=O)O [Compound 64, (S)-4-((2-(dimethylamino)-2-oxoethyl) (4-(5,6,7,8-tetrahydro-1,8-naphthyridin-2-yl)butyl)amino)-2-(quinazolin-4-ylamino) butanoic Acid] | < 50
17 | CO[C@H](C)CN(CCCCc1ccc2c(n1)NCCC2)CC[C@H](Nc1nc(C)nc2cc(F)ccc12)C(=O)O [Compound 65, (S)-2-((7-fluoro-2-methylquinazolin-4-yl)amino)-4-(((R)-2-methoxypropyl) (4-(5,6,7,8-tetrahydro-1,8-naphthyridin-2-yl)butyl)amino) butanoic Acid] | < 50
18 | CO[C@H](C)CN(CCCCc1ccc2c(n1)NCCC2)CC[C@H](Nc1nc(C)nc2ccccc12)C(=O)O [Compound 66, (S)-4-(((R)-2-methoxypropyl) (4-(5,6,7,8-tetrahydro-1,8-naphthyridin-2-yl)butyl)amino)-2-((2-methylquinazolin-4-yl)amino) butanoic Acid] | < 50
19 | COCCN(CCCCc1ccc2c(n1)NCCC2)CC[C@H](Nc1nccnc1C#N)C(=O)O [Compound 67, (S)-2-((3-cyanopyrazin-2-yl)amino)-4-((2-methoxyethyl) (4-(5,6,7,8-tetrahydro-1,8-naphthyridin-2-yl)butyl)amino) butanoic Acid] | < 50
20 | CO[C@H](C)CN(CCCCc1ccc2c(n1)NCCC2)CC[C@H](Nc1ncc(C#N)cn1)C(=O)O [Compound 68, (S)-2-((5-cyanopyrimidin-2-yl)amino)-4-(((R)-2-methoxypropyl) (4-(5,6,7,8-tetrahydro-1,8-naphthyridin-2-yl)butyl)amino) butanoic Acid] | < 50
21 | CO[C@H](C)CN(CCCCc1ccc2c(n1)NCCC2)CC[C@H](Nc1ncc(C(F)(F)F)cn1)C(=O)O [Compound 69, (S)-4-(((R)-2-methoxypropyl) (4-(5,6,7,8-tetrahydro-1,8-naphthyridin-2-yl)butyl)amino)-2-((5-(trifluoromethyl)pyrimidin-2-yl)amino) butanoic Acid] | < 50
22 | CO[C@H](C)CN(CCCCc1ccc2c(n1)NCCC2)CC[C@H](Nc1ncc(Br)cn1)C(=O)O [Compound 70, (S)-2-((5-bromopyrimidin-2-yl)amino)-4-(((R)-2-methoxypropyl) (4-(5,6,7,8-tetrahydro-1,8-naphthyridin-2-yl)butyl)amino) butanoic Acid] | < 50
23 | CO[C@H](C)CN(CCCCc1ccc2c(n1)NCCC2)CC[C@H](Nc1ncnc2[nH]ncc12)C(=O)O [Compound 71, (S)-2-((1H-pyrazolo[3,4-d]pyrimidin-4-yl)amino)-4-(((R)-2-methoxypropyl) (4-(5,6,7,8-tetrahydro-1,8-naphthyridin-2-yl)butyl)amino) butanoic Acid] | < 50
24 | CO[C@H](C)CN(CCCCc1ccc2c(n1)NCCC2)CC[C@H](Nc1ccnc(C(F)(F)F)n1)C(=O)O [Compound 72, (S)-4-(((R)-2-methoxypropyl) (4-(5,6,7,8-tetrahydro-1,8-naphthyridin-2-yl)butyl)amino)-2-((2-(trifluoromethyl)pyrimidin-4-yl)amino) butanoic Acid] | < 50

From patent publication US10793564B2, “Amino acid compounds and methods of use” (Pliant Therapeutics, Inc., priority 2018, dated 2020)
